Our source for the TGI and GI50 values is PubChem BioAssay (NCI).

SMILES strings stand for the structures. “And” between values parts separate entries of the source, which are not always exact repeats. Equal entries are not always repeated.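 Assay format: 96-well plates, 48-hour exposure. GI50 = concentration required for 50% inhibition of growth. TGI marks complete inhibition of growth.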

Some test systems named below: CAKI-1 renal; 786-0 renal; MDA-MB-231 breast; IGROV1 ovarian; RXF 393 renal; BT-549 breast; EKVX NSCLC; SF-539 CNS; SF-268 CNS; SNB-75 CNS.
Holding throughout (test): inhibition of tumour cell growth, NCI panel, 48 h

On to `CNc1ccc(-c2cc(=O)oc3ccc(Cl)cc23)cc1`, for which the TGI is > 100 µM with CAKI-1 renal; > 100 µM in the experiment with 786-0 renal; > 100 µM in the experiment with MDA-MB-231 breast; > 100 µM with IGROV1 ovarian; > 100 µM in the experiment with RXF 393 renal; 3.02 µM with BT-549 breast. Moreover, the TGI in the experiment on EKVX NSCLC was > 100 µM; in the experiment with SF-539 CNS, 0.481 µM and 0.109 µM; in the experiment with SF-268 CNS, > 100 µM. Moreover, the GI50 in the experiment on 786-0 renal is 0.133 µM and 0.0442 µM; in the experiment with MDA-MB-231 breast it was 1.07 µM and 0.424 µM; in the experiment on RXF 393 renal it was 0.0912 µM; in the experiment on BT-549 breast it was 0.102 µM and 0.044 µM; in the experiment with EKVX NSCLC it was 0.589 µM and 0.279 µM; in the experiment with SF-539 CNS, 0.0527 µM and 0.0255 µM. For the same molecule, the GI50 with SF-268 CNS is 0.247 µM and 0.066 µM.

As to `O=C(c1cccs1)c1c(C(F)(F)F)n([O-])c2ccc(F)cc2[n+]1=O`, the GI50 is 1.62 µM in the experiment on CAKI-1 renal; 1.32 µM with 786-0 renal; 1.5 µM in the experiment on MDA-MB-231 breast; 0.279 µM in the experiment on IGROV1 ovarian; 1.2 µM with RXF 393 renal; 0.815 µM in the experiment with BT-549 breast. Also, the GI50 in the experiment on SNB-75 CNS is 1.47 µM; in the experiment on EKVX NSCLC it was 1.69 µM; with SF-539 CNS, 1.67 µM. The TGI in the experiment on CAKI-1 renal amounted to 3.14 µM; in the experiment with 786-0 renal it was 2.74 µM; in the experiment with MDA-MB-231 breast, 3.1 µM; in the experiment with IGROV1 ovarian, 1.49 µM; in the experiment on RXF 393 renal, 2.74 µM; with BT-549 breast, 2.6 µM. Moreover, the TGI in the experiment on SNB-75 CNS worked out at 2.82 µM; in the experiment with EKVX NSCLC, 3.7 µM; with SF-539 CNS, 3.47 µM.

In the case of `CN1c2ccccc2S(=O)(=O)n2c(COc3ccc(Cl)cc3)nnc21`, the TGI in the experiment on CAKI-1 renal, in the experiment with 786-0 renal, in the experiment with MDA-MB-231 breast, in the experiment with IGROV1 ovarian, in the experiment on RXF 393 renal and in the experiment on BT-549 breast was > 100 µM in each case. For the same molecule, the TGI with EKVX NSCLC, in the experiment with SF-539 CNS and in the experiment on SF-268 CNS was > 100 µM each time.

With `COC(=O)[C@@]1(C)CC[C@]2(C)CC[C@]3(C)C4=CC=C5C(=CC(=O)C(O)=C5C)[C@]4(C)CC[C@@]3(C)[C@@H]2C1`, the GI50 was 0.172 µM with 786-0 renal; 0.171 µM in the experiment on MDA-MB-231 breast; 0.198 µM in the experiment on IGROV1 ovarian; 0.176 µM in the experiment on RXF 393 renal; 0.36 µM in the experiment on BT-549 breast; 0.313 µM in the experiment on SNB-75 CNS. The GI50 is 0.295 µM in the experiment on EKVX NSCLC, 0.26 µM with SF-539 CNS and 0.341 µM in the experiment with SF-268 CNS. For the same molecule, the TGI with 786-0 renal was 0.315 µM; in the experiment on MDA-MB-231 breast it was 0.395 µM; in the experiment on IGROV1 ovarian it was 0.46 µM; in the experiment with RXF 393 renal, 0.33 µM; in the experiment with BT-549 breast, 0.889 µM; with SNB-75 CNS it was 0.854 µM. The figures for the TGI with EKVX NSCLC, in the experiment on SF-539 CNS and in the experiment with SF-268 CNS were 1.11 µM, 0.554 µM and 1.23 µM, respectively.

With `O=C(NNC(=O)c1ccncc1)c1ccncc1`, the TGI in the experiment on CAKI-1 renal, with 786-0 renal, in the experiment with MDA-MB-231 breast, in the experiment with IGROV1 ovarian, in the experiment on RXF 393 renal and in the experiment on BT-549 breast was > 100 µM each time. For the same molecule, the TGI in the experiment with SNB-75 CNS, in the experiment with EKVX NSCLC and in the experiment with SF-268 CNS was > 100 µM each time.

In the case of `C=C1C(=O)O[C@@H]2C[C@@H]1CC[C@@]1(C)O[C@@H]1CC[C@@]1(C)O[C@@H]1CC[C@@]2(C)O`, the GI50 is 22.7 µM in the experiment on CAKI-1 renal; 19.2 µM with 786-0 renal; 13.7 µM in the experiment on MDA-MB-231 breast; 21.2 µM in the experiment on IGROV1 ovarian; 42.8 µM with RXF 393 renal; 22.1 µM with BT-549 breast. Further, the GI50 in the experiment on EKVX NSCLC is 32.3 µM; in the experiment on SF-539 CNS, 26.7 µM; in the experiment on SF-268 CNS it was 40.5 µM. The TGI was 72.8 µM with CAKI-1 renal; 42.2 µM in the experiment with 786-0 renal; 31.6 µM with MDA-MB-231 breast; > 100 µM with IGROV1 ovarian; > 100 µM in the experiment on RXF 393 renal; 59.6 µM with BT-549 breast. For the same molecule, the TGI is > 100 µM in the experiment with EKVX NSCLC, 75.9 µM in the experiment on SF-539 CNS and > 100 µM with SF-268 CNS.

`CC[CH2][Sn]([Cl])([Cl])[CH2]CC`: the GI50 is 6.69 µM with CAKI-1 renal; 10.8 µM in the experiment with 786-0 renal; 5.16 µM with MDA-MB-231 breast; 6.96 µM with RXF 393 renal; 7.87 µM in the experiment with BT-549 breast; 6.24 µM with SNB-75 CNS. The values for the GI50 in the experiment with EKVX NSCLC, in the experiment with SF-539 CNS and in the experiment with SF-268 CNS were 12.3 µM, 11.1 µM and 9.63 µM, respectively. Besides, the TGI in the experiment on CAKI-1 renal turned out to be 21 µM; in the experiment on 786-0 renal, 23 µM; in the experiment on MDA-MB-231 breast, 18.9 µM; with RXF 393 renal, 20.6 µM; with BT-549 breast, 20.5 µM; with SNB-75 CNS, 20.1 µM. Further, the TGI came to 26.4 µM in the experiment with EKVX NSCLC, 25 µM in the experiment with SF-539 CNS and 22.5 µM with SF-268 CNS.

On to `CC(=O)OCC1OC(OC2=C(CC=C(Cl)Cl)C(=O)c3ccccc3C2=O)C(OC(C)=O)C(OC(C)=O)C1OC(C)=O` (configuration not stated), for which the GI50 in the experiment with CAKI-1 renal is 4.91 µM; with 786-0 renal, 16.6 µM; with MDA-MB-231 breast it was 2.05 µM; in the experiment on IGROV1 ovarian, 0.869 µM; in the experiment on RXF 393 renal it was 2.53 µM; with BT-549 breast, 7.03 µM. The GI50 was 2.68 µM with SNB-75 CNS, 4.09 µM in the experiment with SF-539 CNS and 2.75 µM with SF-268 CNS. For the same molecule, the TGI in the experiment with CAKI-1 renal turned out to be 17.6 µM; in the experiment on 786-0 renal, 31.8 µM; in the experiment on MDA-MB-231 breast, 5.62 µM; in the experiment with IGROV1 ovarian, 3.11 µM; in the experiment on RXF 393 renal it was 8.01 µM; in the experiment with BT-549 breast, 20.4 µM. Besides, the figures for the TGI with SNB-75 CNS, in the experiment on SF-539 CNS and in the experiment with SF-268 CNS were 19.9 µM, 14.6 µM and 8.03 µM, respectively.

Consider `C/C(=C\CCc1ccoc1)CC/C=C(\C)CCCN1CCC(CO)CC1`, for which the GI50 in the experiment on CAKI-1 renal is 4.26 µM; in the experiment with 786-0 renal, 2.35 µM; in the experiment with MDA-MB-231 breast, 1.73 µM; with IGROV1 ovarian, 5.33 µM; in the experiment with RXF 393 renal it was 1.54 µM; with BT-549 breast it was 2.77 µM. The GI50 was 2.1 µM in the experiment on SNB-75 CNS, 2.39 µM in the experiment on SF-539 CNS and 5.65 µM in the experiment on SF-268 CNS. The TGI in the experiment with CAKI-1 renal stood at 16.5 µM; with 786-0 renal, 5.37 µM; in the experiment with MDA-MB-231 breast it was 4.39 µM; in the experiment with IGROV1 ovarian it was 19 µM; in the experiment on RXF 393 renal, 4.26 µM; in the experiment with BT-549 breast it was 12.1 µM. The TGI with SNB-75 CNS was 7.79 µM; in the experiment with SF-539 CNS it was 6.9 µM; with SF-268 CNS it was 19.4 µM.
